The text below walks through data of publication PMC5310922, “A high-throughput phenotypic screen identifies clofazimine as a potential treatment for cryptosporidiosis” (PLoS Neglected Tropical Diseases, 2017).

The subject of data set [1] is Cryptosporidium hominis (TU502). In words: C. hominis proliferation in HCT-8 cells, 48 h high-content imaging assay. Particulars: Cryptosporidium hominis. It counts as cell-based. The procedure: Methods for continuous, in vitro cultivation of Cryptosporidium spp. have not been well established. Instead, in vivo oocyst propagation of C. parvum is performed in calves, a more promiscuous Cryptosporidium species for animal and human infections. For C. hominis, gnotobiotic piglets are the primary means of propagation. The calf is the more accessible model, making C. parvum the more convenient species to screen. However, C. hominis is equally clinically relevant with regards to human cryptosporidiosis. […] High purity powders of the 10 filtered C. parvum Bioactives screen hits and both GHCDL screen hits were tested against C. hominis (TU502) to confirm activity against both species.
Cells were then plated (5 μL/well) into 1536-well assay plates at a density of 5.5×10^5 cells/mL (2,750 cells/well).
C. parvum oocysts (Iowa strain, isolated from infected calves) were purchased from the Sterling Parasitology Laboratory, University of Arizona, and stored at 4°C for ≤ 3 months in an antibiotic solution (0.01% Tween 20 containing 100 U/mL penicillin and 100 μg/mL gentamicin). C. hominis oocysts (TU502, isolated from gnotobiotic piglets) were purchased from the Tzipori Laboratory, Cummings School of Veterinary Medicine, Tufts University, and stored at 4°C for ≤ 2 weeks in an antibiotic solution (100 U/mL penicillin and 100 μg/mL streptomycin). For infection of assay plates, 24 h after cell seeding, oocysts were excysted and prepared for inoculation as previously described. Briefly, the oocysts were diluted into 1 mL pre-warmed 10 mM HCl and then incubated in a 37°C water bath for 10 min. Oocysts were then pelleted at 3,000×g for 1 min in a microcentrifuge (Thermo), and the supernatant was carefully aspirated. Oocysts were resuspended in 2 mM sodium taurocholate in DPBS++ (with 0.9 mM CaCl2 and 0.5 mM MgCl2) and incubated at room temperature for 20 min. After incubation in bile salts, the oocysts were diluted 1:100 and free sporozoites and intact oocysts were enumerated to determine the percentage of excystation.
Plates were then washed twice with phosphate buffered saline (PBS). […] To prevent non-specific binding, the cells were blocked with SuperBlock™ T20 blocking agent (Thermo) for 1 h at room temperature. Cryptosporidium parasites were stained with 1 μg/mL fluorescein isothiocyanate (FITC)-conjugated Vicia villosa lectin (Vector Laboratories) in 1:10 diluted SuperBlock™ in PBS-T, supplemented with 3 μM 4',6-diamidino-2-phenylindole (DAPI) to visualize host cell nuclei. Staining was for 1 h at room temperature in the dark. Finally, cells were washed twice with PBS-T and the plates were sealed with adhesive foil. The plates were imaged with a CellInsight CX5 High Content Screening Platform (Thermo) with a 10× objective. […] The software identified primary objects (HCT-8 host cells) and spots within allowed distances to the nuclei (Cryptosporidium). Both cytotoxicity against HCT-8 cells (number of nuclei relative to DMSO-treated controls) and Cryptosporidium inhibition (spot counts relative to DMSO-treated controls) were assessed.
Images were processed by the HCS Studio Scan software, and Selected Object Count (HCT-8 cells) and Spot Count (Cryptosporidium) were analyzed in Genedata Screener (v13.0-Standard). Spot Count and Selected Object Count were normalized to neutral controls minus inhibitors (floxuridine for Spot Count, and puromycin for Selected Object Count).

Data set [2] can be described thus: HepG2 72 h cytotoxicity (CellTiter-Glo). It is filed as cell-based, human. Particulars: human. The procedure: Two mammalian cell lines were used for counter-screening for general cytotoxicity of hit compounds: human embryonic kidney cells (HEK293T; ATCC CRL-3216) and human hepatocellular carcinoma cells (HepG2; ATCC HB-8065). […] Compounds were pre-spotted into tissue culture-treated white solid-bottomed 1536-well plates (Greiner) in a 1:3 dose-response dilution (top concentration 20 μM). HEK293T and HepG2 cells were diluted to 75×10^3 cells/mL and 150×10^3 cells/mL, respectively, and 5 μL/well were dispensed into assay plates with a MultiFlo FX Multi-Mode Dispenser (Biotek). […] At the completion of the assay, CellTiter-Glo (Promega) was prepared at 1:2 (reagent:water) of the manufacturer’s instructions, and 2 μL were dispensed into each well. After a 5 min incubation at room temperature, luminescence readings were measured with an EnVision Multilabel Plate Reader (Perkin Elmer). […] were uploaded into Genedata Screener (v13.0-Standard), and data normalized to DMSO- and puromycin-treated wells. A four-parameter non-linear regression curve fit was applied to dose-response data using Genedata to determine the half maximal cytotoxic concentration (CC50) of each compound.
On the technique in general: Cellular ATP, detected with luciferase, serves as a proxy for viable cell number.

The next data set has as its system C. parvum. The data set is described as follows: Mouse model of acute cryptosporidiosis, fecal oocyst shedding by flow cytometry. It is filed as in vivo, C57BL/6 IFNγ-/- mice. As to conditions: for oocyst shedding, % of mock-dosed mice: 10 mg/kg oral on days 4, 5, 6 p.i., 10^4 oocysts, day 7 (within 24 h of end of treatment). The procedure: Four week old female C57BL/6 IFNγ^-/- mice were purchased from the Jackson Laboratory and acclimated for four to ten days in specific pathogen-free conditions in the Health Sciences Biomedical Research Facility at the University of California, San Diego. Mice were provided water and chow (Teklad 2920X) ad libitum. […] Treatment regimens included 10 mg/kg, 100 mg/kg, and 0 mg/kg (vehicle only; n = 4 per group). Certain assays also involved gavage of characterized anticryptosporidial BKI-1294 (a kind gift from W. […] Oocysts were extracted via a modified discontinuous sucrose gradient technique. Briefly, […] solution was freshly prepared by dissolving 156.25 g sucrose and 2.5 mL phenol in 100 mL water. Fecal pellets were removed from storage then homogenized by vortexing and pipetting. […] Oocysts were floated from feces by centrifugation at 1,000×g for 20 min and collected with a pipet tip from the 1.064/1.103 specific gravity interface. Oocysts were rinsed once in cold PBS, pelleted by centrifugation at 15,000×g for 10 min, and resuspended in PBS. 50 μL aliquots were incubated for 30 min at room temperature with 0.25 μg fluorescein isothiocyanate-conjugated mouse anti-Cryptosporidium antibody (OW50-FITC, BioRad 2402-3007), then diluted to 200 μL with PBS. Samples were analyzed using a Guava EasyCyte flow cytometer and CytoSoft Data Acquisition and Analysis software (v5.3; Guava Technologies, Inc.), using a 100 s sampling interval, 0.59 μL/s flow rate, and logical gating of forward and side light scatter and OW50-FITC fluorescence signals. Each experimental run included positive and negative controls to calibrate region settings discriminating the oocyst-FITC population from background signals. Oocyst counts/mL sample values were exported to Excel (Microsoft Corp.) for normalization to counts/mg feces. Final graphing and statistical analyses of data were done using GraphPad Prism software (v6, GraphPad Software, Inc.). Two-way ANOVA with Dunnett's correction (Fig 4A) and unpaired multiple t-tests with False Discovery Rate approach (Fig 4B) were performed on % Vehicle data to determine significance between vehicle-treated and compound-treated mice.

Where [3] appears, read: in HCT-8 cells, 48 h, value (SD; n), read-out: C. hominis 48H Assay EC50 [µM] (SD; n).

Read-outs that look alike come from different tables or passages of the source.

The term EC50 denotes the midpoint of the concentration-response curve. Usually CC50 stands for the concentration that lowers cell viability or growth by half. As for `CCOc1ccc2cc(-c3nn(CC4CCN(C)CC4)c4ncnc(N)c34)ccc2c1` [BKI-1294], the EC50 in data set [1] (setting [3]) came out at 0.457 µM. Besides, the midpoint of cytotoxicity in data set [2], the CC50 at 72 h, lay at 11.1 µM. The “oocyst shedding, % of mock-dosed mice” value in the data set with C. parvum is 18.1% ± 2.2%.
Take `CC(C)/N=c1\cc2n(-c3ccc(Cl)cc3)c3ccccc3nc-2cc1Nc1ccc(Cl)cc1` [Clofazimine]: the EC50 in data set [1] (HCT-8, same in vitro host cell line, read-out: EC50 against C. hominis) was determined as 0.34 µM; in data set [1] (setting [3]), 0.341 µM. In data set [2] (HepG2 cells, 72 h, value (SD; n), read-out: HepG2 72H Cytotoxicity CC50 [µM] (SD; n)), the CC50 at 72 h was greater than 20 µM. Further, the “oocyst shedding, % of control group” value in the data set on C. parvum (10 mg/kg oral daily from day 4 p.i., within two days of treatment onset) is on record as 2.5% ± 1.7%. Further, the “oocyst shedding, % of mock-dosed mice” value in the data set on C. parvum was “below 1%”. Further, the oocyst shedding entry in the data set with C. parvum (once daily for three consecutive days or a single high dose) is “reduction of oocyst shedding below the limit detectable by flow cytometry”. For the same compound, the “oocyst shedding, % of mock-treated mice” value with C. parvum (single 100 mg/kg oral dose on day 4, 1×10^6 oocysts, second day after treatment) was 1.5% ± 0.4%.
